According to US10597388B2, “Pyridazinone herbicides” (FMC CORPORATION, priority 2014, dated 2020):

Assays:
Assay type in all cases: in vivo
rice (Oryza sativa) = assay: Test B flooded paddy test; details: 250 g ai/ha, Flood; visual rating on scale of 0 to 100 where 0 is no effect and 100 is complete control; 13 to 15 d after treatment
Summary of the method: (§1)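 Plants at the 2-leaf stage were flooded to 3 cm above soil, and test compounds were applied directly into the paddy water, which was held at that depth throughout. After 13 to 15 d in a greenhouse, injury was rated visually against untreated controls on a 0–100 scale (0 no effect, 100 complete control).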

[1] = tested on: ducksalad (Heteranthera limosa); assay: Test B flooded paddy test; details: 250 g ai/ha, Flood; visual rating on scale of 0 to 100 where 0 is no effect and 100 is complete control; 13 to 15 d after treatment
Summary of the method: as §1

[2] = tested on: sedge, umbrella (small-flower umbrella sedge, Cyperus difformis); assay: Test B flooded paddy test; details: 250 g ai/ha, Flood; visual rating on scale of 0 to 100 where 0 is no effect and 100 is complete control; 13 to 15 d after treatment
Summary of the method: as §1

[3] = tested on: barnyardgrass (Echinochloa crus-galli); assay: Test B flooded paddy test; details: 250 g ai/ha, Flood; visual rating on scale of 0 to 100 where 0 is no effect and 100 is complete control; 13 to 15 d after treatment
Summary of the method: as §1

[4] = tested on: chickweed (common chickweed, Stellaria media); assay: Test C greenhouse herbicide test, postemergence
Summary of the method: (§2)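 Visual injury scores (0–100, where 100 means complete control) were assigned 13 to 15 d after postemergence application, by comparison with untreated plants. Treated seedlings stood 2 to 18 cm tall, at the 1- to 4-leaf stage.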

kochia (Kochia scoparia) [5] = assay: Test C greenhouse herbicide test, postemergence
Summary of the method: as §2

[6] = tested on: oat, wild (wild oat, Avena fatua); assay: Test C greenhouse herbicide test, postemergence
Summary of the method: as §2

kochia (Kochia scoparia) [7] = assay: Test A greenhouse herbicide test, pre- and postemergence
Summary of the method: (§3)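 Seeds sown in loam–sand blend got a preemergence directed soil spray of compound in non-phytotoxic solvent with surfactant. Postemergence treatment was given at 2–10 cm, one- to two-leaf stage. After ~10 d in greenhouse, injury was rated visually vs untreated controls, 0 (no effect) to 100 (complete control).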

[8] = tested on: pigweed (Amaranthus retroflexus); assay: as above
Summary of the method: as §3

[9] = tested on: barnyardgrass (Echinochloa crus-galli); assay: as above
Summary of the method: as §3

[10] = tested on: ragweed (common ragweed, Ambrosia elatior); assay: as above
Summary of the method: as §3

[11] = Postemergence, 31 g ai/ha, 0 to 100 scale (0 no effect, 100 complete control)
[12] = Postemergence, 125 g ai/ha, scale 0 to 100, 0 is no effect, 100 is complete control
[13] = Postemergence, 250 g ai/ha, scale 0 to 100, 0 no effect, 100 complete control, 13 to 15 d
[14] = postemergence, 62 g ai/ha, scale 0 to 100, 0 no effect, 100 complete control
[15] = Postemergence, 125 g ai/ha, visual rating after approx. 10 d, 0 to 100 scale (0 no effect, 100 complete control)
[16] = Postemergence, 500 g ai/ha, 0 to 100 scale, 0 is no effect, 100 is complete control
[17] = Preemergence, 125 g ai/ha, 0 to 100 scale where 0 is no effect and 100 is complete control
[18] = Preemergence, 500 g ai/ha, 0 to 100 scale, 0 no effect, 100 complete control

| SMILES | Plant response rating, Rice (rice (Oryza sativa)) | Plant response rating, Ducksalad [1] | Plant response rating, Sedge, Umbrella [2] | Plant response rating, Barnyardgrass [3] | Chickweed plant response rating [4, 11] | Plant response rating, Chickweed [4, 12] | Plant response rating, Chickweed [4, 13] | Chickweed plant response rating [4, 14] | Kochia plant response rating (kochia (Kochia scoparia) [5]; [11]) | Plant response rating, Kochia (kochia (Kochia scoparia) [5]; [12]) | Plant response rating, Kochia (kochia (Kochia scoparia) [5]; [13]) | Kochia plant response rating (kochia (Kochia scoparia) [5]; [14]) | Oat, Wild plant response rating [6, 11] | Plant response rating, Oat, Wild [6, 12] | Plant response rating, Oat, Wild [6, 13] | Oat, Wild plant response rating [6, 14] | Plant response rating, Kochia (kochia (Kochia scoparia) [7]; [15]) | Kochia plant response rating (kochia (Kochia scoparia) [7]; [16]) | Kochia plant response rating (kochia (Kochia scoparia) [7]; [17]) | Plant response rating, Kochia (kochia (Kochia scoparia) [7]; [18]) | further results |
| --- | --- | --- | --- | --- | --- | --- | --- | --- | --- | --- | --- | --- | --- | --- | --- | --- | --- | --- | --- | --- | --- |
| Cc1cc(C)c2ccccc2c1-c1c(O)c(C)nn(C)c1=O [Compound 21] | 55 | 0 | 65 | 70 | 95 | 100 | 100 | 100 | 80 | 95 | 100 | 90 | 90 | 98 | 100 | 98 | 100 | 100 | 30 | 90 | Plant response rating, Pigweed [8, 15]: 100; Pigweed plant response rating [8, 16]: 100; Pigweed plant response rating [8, 17]: 100; Plant response rating, Pigweed [8, 18]: 100; Plant response rating, Barnyardgrass [9, 15]: 90; Barnyardgrass plant response rating [9, 16]: 90; Barnyardgrass plant response rating [9, 17]: 90; Plant response rating, Barnyardgrass [9, 18]: 100; Plant response rating, Ragweed [10, 15]: 100; Ragweed plant response rating [10, 16]: 100; Ragweed plant response rating [10, 17]: 100; Plant response rating, Ragweed [10, 18]: 100 |
| Cc1cc2ccccc2c(-c2c(O)c(C)nn(C)c2=O)c1C [Compound 34] | 0 | 0 | 0 | 0 | 90 | 90 | 95 | 90 | 10 | 60 | 85 | 45 | 80 | 90 | 90 | 85 | 70 | 80 | 30 | 60 | Plant response rating, Pigweed [8, 15]: 90; Pigweed plant response rating [8, 16]: 90; Pigweed plant response rating [8, 17]: 90; Plant response rating, Pigweed [8, 18]: 100; Plant response rating, Barnyardgrass [9, 15]: 30; Barnyardgrass plant response rating [9, 16]: 90; Barnyardgrass plant response rating [9, 17]: 20; Plant response rating, Barnyardgrass [9, 18]: 80; Plant response rating, Ragweed [10, 15]: 90; Ragweed plant response rating [10, 16]: 100; Ragweed plant response rating [10, 17]: 80; Plant response rating, Ragweed [10, 18]: 90 |
